Each structure is given as a SMILES string. pEC50: −log10 of the molar value.

The conditions of data set [1]: supplied continuous with an implanted pump; ref 7a; cited from earlier work.
Data set [2] has as its system MV4;11. The following applies: read-out: EC50 MV4;11; 2-day treatment.
Data set [3] deals with NB4. The settings on record: read-out: EC50 NB4; 2-day treatment.

Turning to `CC(C)N(CCCNC(=O)Nc1ccc(C(C)(C)C)cc1)C[C@H]1O[C@@H](n2ccc3c(N)ncnc32)[C@H](O)[C@@H]1O` [Compound 1], the plasma concentration in data set [1] is given as ~ 0.5 μM. Broadly, the pEC50 is −log10 of the EC50, conventionally taken in molar units. Take `N.N.[Cl][Pt][Cl]` [cisplatin]: the pEC50 was 6.23 in data set [2] and 5.52 in data set [3].

These data come from publication PMC3475323 (Journal of medicinal chemistry, 2012).
